In PubChem BioAssay AID330 (DTP/NCI, 2004):
Several values for one entry are separate records, joined by “and”; a condition that tells them apart may be missing. Equal entries are not always repeated. Inconclusive results and toxic doses are left out. Rule for the calls: active = survival T/C of 150% or more; inactive = T/C below 125% in these data.

Tested on: P388 leukemia ip, CD2F1 mice, survival T/C
Experiment: NCI In Vivo Anticancer Drug Screen. Data for tumor model P388 Leukemia (intraperitoneal) in CD2F1 (CDF1) mice
Settings: endpoint: median survival time, higher = longer survival
In short: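 Mice carrying the transplanted tumor received test compound or vehicle. Survival was recorded in each group, and the value is the treated-group measurement divided by that of the vehicle-treated control group.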

[1] = dose: 50.0 mg/kg/injection, schedule: Q01DX009 (ip), vehicle: Klucel (hydroxypropylcellulose) (HPC)
[2] = dose: 100.0 mg/kg/injection, schedule: Q01DX009 (ip), vehicle: Klucel (hydroxypropylcellulose) (HPC)
[3] = dose: 200.0 mg/kg/injection, schedule: Q01DX009 (ip), vehicle: Klucel (hydroxypropylcellulose) (HPC)
[4] = dose: 60.0 mg/kg/injection, schedule: Q01DX005 (ip), vehicle: saline with Tween-80
[5] = dose: 120.0 mg/kg/injection, schedule: Q01DX005 (ip), vehicle: saline with Tween-80
[6] = dose: 50.0 mg/kg/injection, schedule: Q01DX009 (ip), vehicle: saline with Tween-80
[7] = dose: 100.0 mg/kg/injection, schedule: Q01DX009 (ip), vehicle: saline with Tween-80
[8] = dose: 200.0 mg/kg/injection, schedule: Q01DX009 (ip), vehicle: saline with Tween-80
[9] = dose: 60.0 mg/kg/injection, schedule: Q01DX005 (ip), vehicle: Klucel (hydroxypropylcellulose) (HPC)

Measured: T/C

COC(=O)C(CCSC)NC(=O)C(Cc1c[nH]c2ccccc12)NC(=O)OC(C)(C)C (stereo not given)
inactive: [1] 86 % of control | [2] 97 % of control | [3] 106 % of control

CCCCCCCC(=O)C1C(=O)OC(C)(C)OC1=O
inactive: [4] 100 % of control | [5] 100 % of control

CCOC(CN=Cc1cc(C)c2oc3ccccc3c2c1C)OCC
inactive: [6] 100 % of control | [7] 100 % of control | [8] 95 % of control

CN1CCN(C)C(=O)C1=O
inactive: dose: 12.5 mg/kg/injection, schedule: Q04DX003 (ip), vehicle: suspension in saline 108 % of control | dose: 25.0 mg/kg/injection, schedule: Q04DX003 (ip), vehicle: suspension in saline 115 % of control | dose: 50.0 mg/kg/injection, schedule: Q04DX003 (ip), vehicle: suspension in saline 110 % of control

C#CC(=O)OC
inactive: dose: 25.0 mg/kg/injection, schedule: Q04DX002 (ip), vehicle: saline 102 % of control | dose: 50.0 mg/kg/injection, schedule: Q04DX002 (ip), vehicle: saline 98 % of control | dose: 100.0 mg/kg/injection, schedule: Q04DX002 (ip), vehicle: saline 106 % of control

CCN(CC)CCO/N=c1\nc(-c2ccccc2)c2cc(Cl)ccc2s1
inactive: dose: 50.0 mg/kg/injection, schedule: Q01DX009 (ip), vehicle: saline 100 % of control | dose: 100.0 mg/kg/injection, schedule: Q01DX009 (ip), vehicle: saline 103 % of control | dose: 200.0 mg/kg/injection, schedule: Q01DX009 (ip), vehicle: saline 104 % of control

Nc1ncnc2c1ncn2Cc1cccnc1
inactive: dose: 50.0 mg/kg/injection, schedule: Q01DX005 (ip), vehicle: Klucel (hydroxypropylcellulose) (HPC) 98 % of control | dose: 100.0 mg/kg/injection, schedule: Q01DX005 (ip), vehicle: Klucel (hydroxypropylcellulose) (HPC) 98 % of control | dose: 200.0 mg/kg/injection, schedule: Q01DX005 (ip), vehicle: Klucel (hydroxypropylcellulose) (HPC) 100 % of control

COC(C(N)=O)(c1ccccc1)C(F)(F)F (stereo not given)
inactive: [7] 90 % of control | [8] 100 % of control | dose: 400.0 mg/kg/injection, schedule: Q01DX009 (ip), vehicle: saline with Tween-80 90 % of control

CCOC(=O)c1ccc(NC(=O)Nc2cccc3c(O)cccc23)cc1
inactive: [9] 89 % of control | dose: 120.0 mg/kg/injection, schedule: Q01DX005 (ip), vehicle: Klucel (hydroxypropylcellulose) (HPC) 96 % of control | dose: 240.0 mg/kg/injection, schedule: Q01DX005 (ip), vehicle: Klucel (hydroxypropylcellulose) (HPC) 88 % of control

CC(=O)Nc1ccc(NC(=S)Nc2ccccc2C(F)(F)F)cc1
inactive: [1] 96 % of control | [2] 92 % of control | [3] 87 % of control

CCOC(=O)C=C1CCC2(CC1)SCCS2
inactive: dose: 100.0 mg/kg/injection, schedule: Q01DX001 (ip), vehicle: other 104 % of control | dose: 200.0 mg/kg/injection, schedule: Q01DX001 (ip), vehicle: other 114 % of control | dose: 400.0 mg/kg/injection, schedule: Q01DX001 (ip), vehicle: other 117 % of control

CC(=O)Oc1cccc2c1C(=O)c1c(OC(C)=O)cccc1C2=O
inactive: dose: 1.56 mg/kg/injection, schedule: Q04DX003 (ip), vehicle: Klucel (hydroxypropylcellulose) (HPC) 99 % of control and 89 % of control | dose: 3.12 mg/kg/injection, schedule: Q04DX003 (ip), vehicle: Klucel (hydroxypropylcellulose) (HPC) 97 % of control | dose: 3.13 mg/kg/injection, schedule: Q04DX003 (ip), vehicle: Klucel (hydroxypropylcellulose) (HPC) 107 % of control | dose: 6.25 mg/kg/injection, schedule: Q04DX003 (ip), vehicle: Klucel (hydroxypropylcellulose) (HPC) 99 % of control and 97 % of control | dose: 12.5 mg/kg/injection, schedule: Q04DX003 (ip), vehicle: Klucel (hydroxypropylcellulose) (HPC) 99 % of control and 92 % of control | [1] 87 % of control | [3] 87 % of control | dose: 400.0 mg/kg/injection, schedule: Q01DX009 (ip), vehicle: Klucel (hydroxypropylcellulose) (HPC) 96 % of control

CCNCc1c2c(O)c3c(O)c(C)c4c(c3c1O)C(=O)C(C)(O/C=C/C(OC)C(C)C(OC(C)=O)C(C)C(O)C(C)C(O)C(C)/C=C/C=C(/C)C(=O)N2)O4 (stereo not given)
inactive: dose: 25.0 mg/kg/injection, schedule: Q01DX009 (ip), vehicle: other 89 % of control | dose: 50.0 mg/kg/injection, schedule: Q01DX009 (ip), vehicle: other 89 % of control | dose: 100.0 mg/kg/injection, schedule: Q01DX009 (ip), vehicle: other 89 % of control | dose: 200.0 mg/kg/injection, schedule: Q01DX009 (ip), vehicle: other 89 % of control | dose: 400.0 mg/kg/injection, schedule: Q01DX009 (ip), vehicle: other 90 % of control

Cc1[nH]c(N)nc(=S)c1CCCOc1ccc([N+](=O)[O-])cc1
inactive: [4] 99 % of control | [5] 93 % of control | dose: 240.0 mg/kg/injection, schedule: Q01DX005 (ip), vehicle: saline with Tween-80 97 % of control

Cc1cc2nc3c(nc2cc1C)CCCCCC3
inactive: dose: 85.5 mg/kg/injection, schedule: Q01DX001 (ip), vehicle: Klucel (hydroxypropylcellulose) (HPC) 92 % of control | dose: 171.0 mg/kg/injection, schedule: Q01DX001 (ip), vehicle: Klucel (hydroxypropylcellulose) (HPC) 90 % of control | dose: 342.0 mg/kg/injection, schedule: Q01DX001 (ip), vehicle: Klucel (hydroxypropylcellulose) (HPC) 90 % of control

C/C(=N/NC(N)=S)c1cn[nH]c1C
inactive: dose: 15.0 mg/kg/injection, schedule: Q01DX005 (ip), vehicle: Klucel (hydroxypropylcellulose) (HPC) 102 % of control | dose: 30.0 mg/kg/injection, schedule: Q01DX005 (ip), vehicle: Klucel (hydroxypropylcellulose) (HPC) 102 % of control | [9] 114 % of control

c1ccc2c(c1)C1c3cccc[n+]3C2C2C1CC1C3c4ccccc4C(C12)[n+]1ccccc13 (stereo not given)
inactive: dose: 1.56 mg/kg/injection, schedule: Q01DX005 (ip), vehicle: saline with Tween-80 102 % of control | dose: 3.13 mg/kg/injection, schedule: Q01DX005 (ip), vehicle: saline with Tween-80 102 % of control | dose: 6.25 mg/kg/injection, schedule: Q01DX005 (ip), vehicle: saline with Tween-80 104 % of control and 94 % of control

O=S(=O)(c1ccc(Cl)c(Cl)c1)N(c1cccc(C(F)(F)F)c1)S(=O)(=O)c1ccc(Cl)c(Cl)c1
inactive: dose: 6.25 mg/kg/injection, schedule: Q01DX009 (ip), vehicle: saline with Tween-80 100 % of control | dose: 12.5 mg/kg/injection, schedule: Q01DX009 (ip), vehicle: saline with Tween-80 94 % of control | dose: 25.0 mg/kg/injection, schedule: Q01DX009 (ip), vehicle: saline with Tween-80 97 % of control

CCCC[C@H]1C(=O)O[C@H](C)[C@H](NC(=O)c2cccc(NC=O)c2O)C(=O)O[C@@H](C)[C@@H]1OC(=O)CC(C)C
inactive: dose: 0.12 mg/kg/injection, schedule: Q01DX009 (ip), vehicle: Klucel (hydroxypropylcellulose) (HPC) 105 % of control | dose: 0.25 mg/kg/injection, schedule: Q01DX009 (ip), vehicle: Klucel (hydroxypropylcellulose) (HPC) 105 % of control | dose: 0.5 mg/kg/injection, schedule: Q01DX009 (ip), vehicle: Klucel (hydroxypropylcellulose) (HPC) 109 % of control | dose: 1.0 mg/kg/injection, schedule: Q01DX009 (ip), vehicle: Klucel (hydroxypropylcellulose) (HPC) 119 % of control

COC(=O)C1C2C=CC(C1C(=O)OC)C1C3C(=O)N(N)C(=O)C3C21 (stereo not given)
inactive: dose: 50.0 mg/kg/injection, schedule: Q01DX005 (ip), vehicle: saline with Tween-80 100 % of control | dose: 100.0 mg/kg/injection, schedule: Q01DX005 (ip), vehicle: saline with Tween-80 96 % of control | dose: 200.0 mg/kg/injection, schedule: Q01DX005 (ip), vehicle: saline with Tween-80 91 % of control

CC1(C)OC(=O)C(=Cc2ccc([N+](=O)[O-])s2)C(=O)O1
inactive: [6] 103 % of control and 110 % of control | [7] 109 % of control and 122 % of control | [8] 111 % of control and 124 % of control
